From patent US11590139B2, “Substituted aminopurine compounds, compositions thereof, and methods of treatment therewith” (Signal Pharmaceuticals, LLC, priority 2014, dated 2023)
Like-named read-outs stand apart in the source and are kept apart here.

Test system: Lox-IMVI melanoma cell line
Experiment: Lox-IMVI anti-proliferative assay (growth inhibition, Cell Titer-Glo)
Type: cell-based, human
Conditions: Homo sapiens
Outline: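 IC50 values reflect the concentration giving 50% of DMSO-control luminescence after 72 h of treatment, fitted with a four-parameter logistic model. Cells were cultured in RPMI + 10% FBS with compound from 0.5 nM to 10 μM.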

[1] = IC50 activity level in the cell-based Lox-IMVI anti-proliferative assay, read-out: Activity
[2] = Lox-IMVI anti-proliferative assay, IC50 activity level, read-out: Activity
[3] = Lox-IMVI melanoma cell line, anti-proliferative assay, read-out: Activity (IC50 activity level)

IC50 [1]	SMILES	also measured
> 1 µM	NC(=O)[C@H]1CC[C@@H](n2c(Nc3c(F)cccc3Cl)nc3cnc(NC4CCN(c5cccnc5)CC4)nc32)CC1 [Example 107, (1s,4s)-4-(8-(2-chloro-6-fluorophenylamino)-2-(1-(pyridin-3-yl)piperidin-4-ylamino)-9H-purin-9-yl)cyclohexanecarboxamide]	
> 1 µM	NC(=O)[C@H]1CC[C@@H](n2c(Nc3c(F)ccc(Cl)c3F)nc3cnc(N[C@@H]4CC[C@@H](O)C4)nc32)CC1 [Example 217, (1S,4s)-4-(8-(3-chloro-2,6-difluorophenylamino)-2-((1R,3R)-3-hydroxycyclopentylamino)-9H-purin-9-yl)cyclohexanecarboxamide]	
> 1 µM	Cc1cc(Cl)cc(F)c1Nc1nc2cnc(NC3CCOCC3)nc2n1[C@H]1CC[C@@H](C(N)=O)CC1 [Example 75, (1s,4s)-4-(8-(4-chloro-2-fluoro-6-methylphenylamino)-2-(tetrahydro-2H-pyran-4-ylamino)-9H-purin-9-yl)cyclohexanecarboxamide]	
	NC(=O)[C@H]1CC[C@@H](n2c(Nc3c(Cl)cc(OC(F)(F)F)cc3Cl)nc3cnc(N[C@@H]4CCC[C@H](O)C4)nc32)CC1 [Example 595, (1S,4s)-4-(8-(2,6-dichloro-4-(trifluoromethoxy)phenylamino)-2-((1R,3S)-3-hydroxycyclohexylamino)-9H-purin-9-yl)cyclohexanecarboxamide]	IC50 [2]: > 1 µM
	NC(=O)[C@H]1CC[C@@H](n2c(Nc3c(F)cc(Cl)cc3F)nc3cnc(N[C@@H]4CCCN(Cc5ccccc5)C4)nc32)CC1 [Example 757, (1S,4s)-4-(2-((R)-1-benzylpiperidin-3-ylamino)-8-(4-chloro-2,6-difluorophenylamino)-9H-purin-9-yl)cyclohexanecarboxamide]	IC50 [3]: > 1 µM
	N#Cc1cc(Cl)c(Nc2nc3cnc(NC4CC5(COC5)C4)nc3n2[C@H]2CC[C@@H](C(N)=O)CC2)c(Cl)c1 [Example 571, (1s,4s)-4-(2-(2-oxaspiro[3.3]heptan-6-ylamino)-8-(2,6-dichloro-4-cyanophenylamino)-9H-purin-9-yl)cyclohexanecarboxamide]	IC50 [2]: 0.25 to 0.5 µM
	C[C@]1(C(N)=O)CC[C@H](n2c(Nc3c(F)cc(Cl)cc3F)nc3cnc(NC4CCOCC4)nc32)CC1 [Example 473, (1r,4r)-4-(8-(4-chloro-2,6-difluorophenylamino)-2-(tetrahydro-2H-pyran-4-ylamino)-9H-purin-9-yl)-1-methylcyclohexanecarboxamide]	IC50 [2]: > 1 µM
> 1 µM	NC(=O)[C@H]1CC[C@@H](n2c(Nc3c(F)cc(Cl)cc3Cl)nc3cnc(NCC4(CO)CC4)nc32)CC1 [Example 206, (1s,4s)-4-(8-(2,4-dichloro-6-fluorophenylamino)-2-((1-(hydroxymethyl)cyclopropyl)methylami-no)-9H-purin-9-yl)cyclohexanecarboxamide]	
	C[C@]1(C(N)=O)CC[C@@H](n2c(Nc3c(F)cc(Cl)cc3Cl)nc3cnc(N[C@@H]4CC[C@@H](O)C4)nc32)CC1 [Example 637, (1S,4s)-4-(8-(2,4-dichloro-6-fluorophenylamino)-2-((1R,3R)-3-hydroxycyclopentylamino)-9H-purin-9-yl)-1-methylcyclohexanecarboxamide]	IC50 [3]: < 0.25 µM
	C[C@]1(C(N)=O)CC[C@@H](n2c(Nc3c(F)cc(F)cc3F)nc3cnc(N[C@H]4CC[C@H](O)C4)nc32)CC1 [Example 643, (1R,4s)-4-(2-((1S,3S)-3-hydroxycyclopentylamino)-8-(2,4,6-trifluorophenylamino)-9H-purin-9-yl)-1-methylcyclohexanecarboxamide]	IC50 [3]: 0.5 to 1 µM
> 1 µM	C[C@@H]1CC[C@@H](Nc2ncc3nc(Nc4c(Cl)cccc4Cl)n([C@H]4CC[C@@H](C(N)=O)CC4)c3n2)C[C@H]1O [Example 345, (1S,4s)-4-(8-(2,6-dichlorophenylamino)-2-((1R,3R,4R)-3-hydroxy-4-methylcyclohexylamino)-9H-purin-9-yl)cyclohexanecarboxamide]	
	NC(=O)[C@H]1CC[C@@H](n2c(Nc3c(F)cc(F)cc3Cl)nc3cnc(N[C@@H]4CCCN(Cc5ccccc5)C4)nc32)CC1 [Example 751, (1S,4s)-4-(2-((R)-1-benzylpiperidin-3-ylamino)-8-(2-chloro-4,6-difluorophenylamino)-9H-purin-9-yl)cyclohexanecarboxamide]	IC50 [3]: > 1 µM
> 1 µM	NC(=O)[C@H]1CC[C@@H](n2c(Nc3cc(F)c(Cl)cc3F)nc3cnc(N[C@@H]4COC[C@H]4O)nc32)CC1 [Example 321, (1S,4s)-4-(8-(4-chloro-2,5-difluorophenylamino)-2-((3R,4S)-4-hydroxytetrahydrofuran-3-ylamino)-9H-purin-9-yl)cyclohexanecarboxamide]	
> 1 µM	NC(=O)[C@H]1CC[C@@H](n2c(Nc3c(Cl)cc(Cl)cc3Cl)nc3cnc(N[C@H]4CCC[C@@H]4O)nc32)CC1 [Example 270, (1R,4s)-4-(2-((1S,2S)-2-hydroxycyclopentylamino)-8-(2,4,6-trichlorophenylamino)-9H-purin-9-yl)cyclohexanecarboxamide]	
< 0.25 µM	C[C@@H](CO)Nc1ncc2nc(Nc3c(F)cc(Cl)cc3Cl)n([C@H]3CC[C@@H](C(N)=O)CC3)c2n1 [Example 135, (1R,4s)-4-(8-(2,4-dichloro-6-fluorophenylamino)-2-((S)-1-hydroxypropan-2-ylamino)-9H-purin-9-yl)cyclohexanecarboxamide]	
	N#Cc1cc(Cl)c(Nc2nc3cnc(NC[C@@H]4CCCC[C@H]4O)nc3n2[C@H]2CC[C@@H](C(N)=O)CC2)c(Cl)c1 [Example 665, (1R,4s)-4-(8-(2,6-dichloro-4-cyanophenylamino)-2-(((1S,2R)-2-hydroxycyclohexyl)methylamino)-9H-purin-9-yl)cyclohexanecarboxamide]	IC50 [3]: > 1 µM
	C[C@]1(C(N)=O)CC[C@@H](n2c(Nc3c(Cl)cc(Cl)cc3Cl)nc3cnc(NC4CCOCC4)nc32)CC1 [Example 522, (1s,4s)-1-methyl-4-(2-(tetrahydro-2H-pyran-4-ylamino)-8-(2,4,6-trichlorophenylamino)-9H-purin-9-yl)cyclohexanecarboxamide]	IC50 [2]: < 0.25 µM
	NC(=O)[C@H]1CC[C@@H](n2c(Nc3c(F)cc(Cl)cc3Cl)nc3cnc(NC4CCC(c5ncno5)CC4)nc32)CC1 (stereo partly shown) [Example 676, (1s,4s)-4-(2-(4-(1,2,4-oxadiazol-5-yl)cyclohexylamino)-8-(2,4-dichloro-6-fluorophenylamino)-9H-purin-9-yl)cyclohexanecarboxamide]	IC50 [3]: > 1 µM
> 1 µM	CC1(C)CC[C@@H](Nc2ncc3nc(Nc4c(F)cccc4F)n([C@H]4CC[C@@H](C(N)=O)CC4)c3n2)C[C@H]1O [Example 382, (1S,4s)-4-(8-(2,6-difluorophenylamino)-2-((1R,3R)-3-hydroxy-4,4-dimethylcyclohexylamino)-9H-purin-9-yl)cyclohexanecarboxamide]	
> 1 µM	NC(=O)[C@H]1CC[C@@H](n2c(Nc3c(Cl)cc(F)cc3Cl)nc3cnc(N[C@@H]4CC[C@@H](O)C4)nc32)CC1 [Example 214, (1S,4s)-4-(8-(2,6-dichloro-4-fluorophenylamino)-2-((1R,3R)-3-hydroxycyclopentylamino)-9H-purin-9-yl)cyclohexanecarboxamide]	
	C[C@]1(C(N)=O)CC[C@H](n2c(Nc3c(F)cc(Cl)cc3Cl)nc3cnc(NC4CCC(F)(F)CC4)nc32)CC1 [Example 478, (1r,4r)-4-(8-(2,4-dichloro-6-fluorophenylamino)-2-(4,4-difluorocyclohexylamino)-9H-purin-9-yl)-1-methylcyclohexanecarboxamide]	IC50 [2]: > 1 µM
> 1 µM	NC(=O)[C@H]1CC[C@@H](n2c(Nc3c(F)cc(F)cc3Cl)nc3cnc(NC4COCC4O)nc32)CC1 (stereo partly shown) [Example 179, (1s,4s)-4-(8-(2-chloro-4,6-difluorophenylamino)-2-(4-hydroxytetrahydrofuran-3-ylamino)-9H-purin-9-yl)cyclohexanecarboxamide]	
	CC(C)OC(=O)N1CCC[C@@H](Nc2ncc3nc(Nc4c(F)cc(Cl)cc4Cl)n([C@H]4CC[C@@H](C(N)=O)CC4)c3n2)C1 [Example 774, (R)-isopropyl 3-(9-((1s,4S)-4-carbamoylcyclohexyl)-8-(2,4-dichloro-6-fluorophenylamino)-9H-purin-2-ylamino)piperidine-1-carboxylate]	IC50 [3]: 0.25 to 0.5 µM
> 1 µM	NC(=O)[C@H]1CC[C@@H](n2c(Nc3c(Cl)cccc3Cl)nc3cnc(N[C@H]4CCC[C@@H](O)C4)nc32)CC1 [Example 370, (1R,4s)-4-(8-(2,6-dichlorophenylamino)-2-((1S,3R)-3-hydroxycyclohexylamino)-9H-purin-9-yl)cyclohexanecarboxamide]	
	C[C@]1(C(N)=O)CC[C@@H](n2c(Nc3c(F)cc(F)cc3Cl)nc3cnc(N[C@@H]4CCC[C@H](O)C4)nc32)CC1 [Example 576, (1S,4s)-4-(8-(2-chloro-4,6-difluorophenylamino)-2-((1R,3S)-3-hydroxycyclohexylamino)-9H-purin-9-yl)-1-methylcyclohexanecarboxamide]	IC50 [2]: 0.25 to 0.5 µM
	NC(=O)[C@H]1CC[C@@H](n2c(Nc3c(Cl)cc(Cl)cc3Cl)nc3cnc(N[C@@H]4CCCC[C@@H]4O)nc32)CC1 [Example 483, (1S,4s)-4-(2-((1R,2S)-2-hydroxycyclohexylamino)-8-(2,4,6-trichlorophenylamino)-9H-purin-9-yl)cyclohexanecarboxamide]	IC50 [2]: > 1 µM
> 1 µM	NC(=O)[C@H]1CC[C@@H](n2c(Nc3ccc(F)c(Cl)c3Cl)nc3cnc(NC4CCOCC4)nc32)CC1 [Example 81, (1s,4s)-4-(8-(2,3-dichloro-4-fluorophenylamino)-2-(tetrahydro-2H-pyran-4-ylamino)-9H-purin-9-yl)cyclohexanecarboxamide]	
> 1 µM	NC(=O)[C@H]1CC[C@@H](n2c(Nc3c(F)cc(F)cc3Cl)nc3cnc(N[C@H]4CCCOC4)nc32)CC1 [Example 245, (1R,4s)-4-(8-(2-chloro-4,6-difluorophenylamino)-2-((S)-tetrahydro-2H-pyran-3-ylamino)-9H-purin-9-yl)cyclohexanecarboxamide]	
